Assay results published in patent publication US8299126B2, “Treatment of canine hemangiosarcoma with a histone deacetylase inhibitor” (priority 2003, dated 2012).
Where “and” joins values, the source holds several entries; their conditions need not be identical. Identical values can stand only once. Like-named read-outs stand apart in the source and are kept apart here.

What was measured:
canine hemangiosarcoma = type: in vivo
Procedure: The present invention is based in part on a case study of a dog having hemangiosarcoma. In the case study, SAHA was administered to the dog at a dose of 100 mg per day (about 3.3 mg/kg/day) post-splenectomy, mixed as a dry powder in dog food. The dog remains in good health more than 400 days post-splenectomy.
A 75 pound (33.75 kg), 12 year old female Rhodesian Ridgeback-Pit Bull mix was diagnosed with hemangiosarcoma. Symptoms included unexplained weakness, pale color to the mucous membranes of the mouth, lack of appetite and excessive consumption of water. The dog was brought to an emergency veterinary center, where X-ray and sonogram examination indicated a multi-lobulated mass on the spleen. An emergency splenectomy was performed, during which approximately 1 liter of blood was aspirated from the body cavity. There was no gross evidence of metastases in the liver or heart and a liver biopsy was taken. […] Nuclei were mildly pleomorphic, oval and had prominent nucleoli. Mitoses were occasionally present. Extramedullary hematopoiesis was present throughout and large areas of hemorrhage and necrosis was typical. The tumor was multifocal throughout the spleen. Pathology results were reported as hemangiosarcoma, grade 1, spleen, with a normal liver.
Starting approximately 2 weeks after splenectomy, when signs of weakness had re-appeared, SAHA was administered in the diet at 100 mg/day, 7 days/week. The dose was based on a rough extrapolation from rat studies. The diet consisted of a cup of standard pelleted dog food (Solid Gold, Hund-n-Flocken), a teaspoonful of brewers yeast (Foster and Smith, Rhinelander, Wis.), 1-2 ml of an essential fatty acid mixture containing n-6 and n-3 PUFA (Foster and Smith), and 2 tablespoonfuls of wet dog food (Pedigree®, Kal Kan Foods, Inc., CA), in which the SAHA was administered.
Within 24 hrs, there was an immediate, observable decrease in weakness and lethargy. […] For three months from diagnosis, the dog went through periods of high alertness and activity punctuated by brief periods of mild lethargy.
(§1) A little over 7 months post-splenectomy, the dog was examined for possible signs of metastasis by chest X-Ray, abdominal ultrasound, echogram, urinalysis and CBC.

[1] = Follow-up blood chemistry and hematology of the SAHA-treated dog; type: in vivo, canine
Excerpt: Approximately one month post-splenectomy, the dog was examined and found to be in good condition. […] The platelet count was above the normal range 550, (reference range, 100-450).
as §1

[2] = Analyzed urine output: removal, half-life and metabolism of SAHA; type: in vivo
Excerpt: (§2) Therefore, it may be possible with further studies to better understand the effect of SAHA on the vascularization of tumors, not only in canines, but perhaps in humans as well.

[3] = Stability at room temperature and solubility of the active compound; type: physicochemical
Excerpt: Suitable preparations of such compositions include emulsions or solid forms suitable for emulsion. As used herein “solid forms” include powders and finely divided particles. Due to the insoluble nature of the active compound, e.g., SAHA, the preferred preparation is in the form of a powder.
as §2

General toxicity of SAHA = assay: General toxicity of SAHA
Excerpt: The daily dosage of the compound of the present invention may vary according to a variety of factors such as underlying disease states, the individual's type, species, and medical condition, weight, sex, age, the severity of the condition to be treated; the route of administration; and the particular compound thereof employed. […] A physician or veterinarian of ordinary skill can readily determine and prescribe the effective amount of the drug required to prevent, counter or arrest the progress of the condition. Optimal precision in achieving concentrations of drug within the range that yields efficacy without toxicity requires a regimen based on the kinetics of the drug's availability to target sites. This involves consideration of the absorption, distribution, metabolism, and excretion of a drug, which are readily quantified.

[4] = tested on: NMU-induced rat mammary tumors; conditions: cited from earlier work
[5] = tested on: human prostate cancer cells; conditions: mouse xenograft model (Butler et al. 2000); cited from earlier work
hemangiosarcoma = conditions: canines, surgery and chemotherapy with doxorubicin; cited from earlier work
[6] = added to the diet, chemopreventive (Cohen et al., 1999)

For `O=C(CCCCCCC(=O)Nc1ccccc1)NO` [SAHA, suberoylanilide hydroxamic acid], the “signs of decreased energy after dose increase” value (canine hemangiosarcoma; SAHA increased to 110 mg/day) was “no signs of decreased energy”, the “signs of metastasis by chest X-Ray, abdominal ultrasound, echogram, urinalysis and CBC” value (canine hemangiosarcoma; a little over 7 months post-splenectomy) was “no evidence of dissemination” and the “time to observable decrease in weakness and lethargy” value (canine hemangiosarcoma; after start of SAHA 100 mg/day in the diet, about 2 weeks after splenectomy) was at most 24 h. The “time the dog remains in good health post-splenectomy” value (canine hemangiosarcoma; one dog with hemangiosarcoma, SAHA 100 mg per day (about 3.3 mg/kg/day), later 110 mg/day, in dog food) was “more than 400 days and 400 days”, the “duration of suppression of metastatic dissemination of neoplastic endothelial cells post-splenectomy” value (canine hemangiosarcoma; one dog, SAHA daily in diet) was 210 days and the bands neutrophils ([1]; a little over 7 months post-splenectomy, range 0-3) was 6. For the same compound, the RBC ([1]; a little over 7 months post-splenectomy, range 5.5-8.5) was 4.98 10^6/µL, the segmented neutrophil ([1]; a little over 7 months post-splenectomy, range 32-36) was 36.5 and the Hematocrit ([1]; a little over 7 months post-splenectomy, range 37-55) was 35.3%. For the same compound, the alkaline phosphatase ([1]; a little over 7 months post-splenectomy, reference range 10-150) was 3 U/L, the RBC ([1]; approximately one month post-splenectomy, range 5-8) was 4.96 10^6/µL and the hemoglobin ([1]; approximately one month post-splenectomy, range 14-21) was 13.2 g/dL. The LDH ([1]; approximately one month post-splenectomy, reference range 50-550) was 49 U/L, the platelet count ([1]; approximately one month post-splenectomy, reference range 100-450) was 550 10^3/µL and the half-life ([2]; from analyzed urine output) was “approximately three to four”. The “removal from the body” value ([2]; from analyzed urine output) was “rapidly removed from the body”, the “metabolism by the animal” value ([2]; in vivo) was “not readily metabolized” and the solubility [3] was “insoluble”. The “stability at room temperature” value ([3]; room temperature) was “stable at room temperature”, the toxicity (General toxicity of SAHA) was “almost no measurable toxicity other than possible fatigue at high doses” and the “effect on time of appearance, incidence, multiplicity and total number of NMU-induced rat mammary tumors” value [4, 6] was “significantly inhibit”. For the same compound, the side effects [4, 6] was “no deleterious side effects”, the “effect on established rat mammary tumors” value ([4]; administered in the diet, chemotherapeutic (Cohen et al., 2002)) was “decrease the size, slow the growth rate and, in some cases, induce the complete regression” and the side effects ([4]; administered in the diet, established tumors (Cohen et al., 2002)) was “no toxic side effects”. The tumor growth [5] was “inhibited tumor growth”.

For `COc1cccc2c1C(=O)c1c(O)c3c(c(O)c1C2=O)C[C@@](O)(C(=O)CO)C[C@@H]3O[C@H]1C[C@H](N)[C@H](O)[C@H](C)O1` [doxorubicin], the prognosis once diagnosed (hemangiosarcoma) is given as “less than six”.
